Experimental data from patent US20080039816A1, “Carbohydrate-Encapsulated Quantum Dots for Bilogical Imaging” (The Government of the United States of America as …, priority 2004, published 2008).

Experiment: Storage stability of thiol ligands (dimerization to disulfide)
Type: physicochemical
Description: In a second, alternative approach for hydrolysis, the debenzylidinated thioester (300 mg) was dissolved in methanol (5 ml). […] Air was bubbled through the solution and the solution was stirred at room temperature and allowed to react for 24 hours. […] The Thomsen-Friedenreich-disulfide of formula VII (130 mg) was then dissolved in distilled water (1 ml) and degassed with argon for 20 minutes. Dithiothreitol (130 mg) was added and the solution allowed to react for 20 minutes. The excess dithiothreitol was then removed by several extractions with ethyl acetate. The residue was then purified by reverse phase flash chromatography on a C-18 column with an aqueous solution of methanol (10%-40% (v/v)) to yield the Thomsen-Friedenreich-thiol of formula VI.
After 30 min, the reaction was carefully neutralized with strongly acidic ion-exchange resin Amberlite®-120, filtered and concentrated. Purification was accomplished on a Strata® SI-1 silica gel cartridge eluting with 20% MeOH in CH2Cl2.

## CC(=O)NC1C(OCCCCCS)OC(CO)C(O)C1OC1OC(CO)C(O)C(O)C1O (centres unmarked) [formula 3]
Room temperature
  stability upon standing at room temperature: oxidizes to the Thomsen-Friedenreich-disulfide of formula VII
Stored at −20° C. (under argon)
  storage stability (dimerization): without significant dimerization for weeks
